Experimental data reported in PubChem BioAssay (NCI).
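Cells were grown in 96-well plates and exposed to each compound for 48 hours at five concentrations; endpoints were interpolated linearly between bracketing concentrations, or set to the highest concentration if not reached. Here, GI50 denotes the concentration required for 50% inhibition of growth. TGI: concentration producing complete growth inhibition.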

Tests used:
Assay in all cases: inhibition of tumour cell growth, NCI panel, 48 h
A549 NSCLC = system: A549 NSCLC
IGROV1 ovarian = system: IGROV1 ovarian
LOX IMVI melanoma = system: LOX IMVI melanoma
SK-OV-3 ovarian = system: SK-OV-3 ovarian
SN12C renal = system: SN12C renal
SNB-75 CNS = system: SNB-75 CNS
U251 CNS = system: U251 CNS
DU-145 prostate = system: DU-145 prostate
HS 578T breast = system: HS 578T breast
NCI/ADR-RES ovarian = system: NCI/ADR-RES ovarian

Compound | TGI (A549 NSCLC) | TGI (IGROV1 ovarian) | TGI (LOX IMVI melanoma) | TGI (SK-OV-3 ovarian) | TGI (SN12C renal) | TGI (SNB-75 CNS) | TGI (U251 CNS) | TGI (DU-145 prostate) | TGI (HS 578T breast) | TGI (NCI/ADR-RES ovarian) | GI50 (A549 NSCLC) | GI50 (DU-145 prostate) | GI50 (HS 578T breast) | GI50 (IGROV1 ovarian) | GI50 (LOX IMVI melanoma) | GI50 (NCI/ADR-RES ovarian) | GI50 (SK-OV-3 ovarian) | GI50 (SN12C renal) | GI50 (SNB-75 CNS) | GI50 (U251 CNS)
Cc1cc(N(CCC#N)CCC#N)ccc1/C=C1/N=C(c2ccccc2)N(N)C1=O | > 100 µM | > 100 µM | > 100 µM | > 100 µM | > 100 µM | 64.9 µM | > 100 µM | – | – | – | – | – | – | – | – | – | – | – | – | –
CC1(C)OC2C(=O)C=C(COCc3ccccc3)C2O1 (stereo not given) | > 100 µM | 53.5 µM | 53.5 µM | 22 µM | > 100 µM | – | 90 µM | > 100 µM | > 100 µM | > 100 µM | – | – | – | – | – | – | – | – | – | –
CC1CN1c1c(C(=O)/C=C/c2ccccc2)c(-c2ccccc2)nn(C)c1=O (stereo not given) | 70.5 µM | 59.8 µM | 31.1 µM | > 100 µM | 32.6 µM | 40 µM | 31.6 µM | – | – | – | – | – | – | – | – | – | – | – | – | –
CCCCn1c(=O)c2c(nc3n2CCCN3CCc2ccc(OCC(=O)NCCN(CC)CC)cc2)n(CCCC)c1=O | 15.4 µM | 15.4 µM | 1.99 µM | 12.6 µM | 15.3 µM | 10 µM | 8.1 µM | 35.3 µM | 11.2 µM | 27.9 µM | 7.12 µM | 4.56 µM | 1.76 µM | 5.83 µM | 0.929 µM | 5.42 µM | 5.93 µM | 5.76 µM | 1.93 µM | 2.14 µM
CNS(=O)(=O)NNS(=O)(=O)c1ccc(Cl)cc1 | > 100 µM | > 100 µM | – | > 100 µM | > 100 µM | – | – | – | – | – | – | – | – | – | – | – | – | – | – | –
COC12c3ccccc3-c3ccccc3C1[C@H]1C(=O)OC(=O)[C@H]12 (stereo not given in full) | – | > 10 µM | > 10 µM | > 10 µM | > 10 µM | > 10 µM | > 10 µM | > 10 µM | > 10 µM | > 10 µM | – | – | – | – | – | – | – | – | – | –
CC(=O)Oc1ccccc1C(=O)/C=C/c1cccc([N+](=O)[O-])c1 | 23.3 µM | – | 3.33 µM | 29.2 µM | 6.79 µM | 14.4 µM | 4.78 µM | 15.8 µM | 8.16 µM | 18.7 µM | 5.48 µM | 4.37 µM | 1.78 µM | – | 1.56 µM | 3.88 µM | 12.9 µM | 2.53 µM | 2.94 µM | 2.02 µM
CCCCCCN(N)C(=O)CC#N | > 100 µM | > 100 µM | > 100 µM | > 100 µM | > 100 µM | > 100 µM | > 100 µM | – | – | – | – | – | – | – | – | – | – | – | – | –
CCOC1=C2N=C(Cc3ccccc3F)N=C2C(=O)c2ccccc21 | > 100 µM | – | – | – | > 100 µM | > 100 µM | > 100 µM | – | – | – | – | – | – | – | – | – | – | – | – | –
CN(C)CCC(/C=C/c1ccccc1)=N\Nc1ccc(Cl)cc1Cl | 30.5 µM | 20.9 µM | – | 22.8 µM | 23.2 µM | 18.8 µM | 24.7 µM | – | – | – | – | – | – | – | – | – | – | – | – | –
CN1COc2c(n(C)c(=O)[nH]c2=O)C1 | > 100 µM | > 100 µM | – | > 100 µM | > 100 µM | > 100 µM | > 100 µM | – | – | – | – | – | – | – | – | – | – | – | – | –
c1ccc(P(=Nc2ccccc2N=P(c2ccccc2)(c2ccccc2)c2ccccc2)(c2ccccc2)c2ccccc2)cc1 | 12.6 µM | 22.8 µM | 13.9 µM | 3.52 µM | 10.9 µM | 2.09 µM | 11.6 µM | – | – | – | – | – | – | – | – | – | – | – | – | –
O=C(O)/C(Cl)=C(\Cl)C(=O)Nc1ccc(Cl)c(Cl)c1Cl | 35.2 µM | 38.7 µM | 31.2 µM | 35.2 µM | 36.7 µM | 34.8 µM | 34.3 µM | – | – | – | – | – | – | – | – | – | – | – | – | –
COc1cc(-c2cc(-c3cc([N+](=O)[O-])c(/C=N/NC(=O)c4ccncc4)o3)ccc2OC)ccc1C | > 100 µM | > 100 µM | > 100 µM | > 100 µM | > 100 µM | > 100 µM | – | – | – | – | – | – | – | – | – | – | – | – | – | –
COc1ccc(C(Cl)=C(c2ccc(OCCN(C)C)cc2)c2ccc(OCCN(C)C)cc2)cc1 | 3.67 µM | 13.3 µM | – | 7.69 µM | 11.7 µM | 3.29 µM | 3.25 µM | – | – | – | – | – | – | – | – | – | – | – | – | –
CC1(C)C2CCC13CS(=O)(=O)N1O[C@]13C(=O)O2 (stereo not given in full) | > 100 µM | > 100 µM | > 100 µM | – | > 100 µM | > 100 µM | > 100 µM | – | – | – | – | – | – | – | – | – | – | – | – | –
CN1CCN(Cc2ccc(NC(=O)c3[nH]ncc3Nc3ncnc4sc5c(c34)CCCC5)cc2)CC1 | – | 1.3 µM | 1.71 µM | 3.01 µM | 1.22 µM | 1.44 µM | – | – | 1.74 µM | – | – | – | 0.151 µM | 0.258 µM | 0.289 µM | – | 0.198 µM | 0.0425 µM | 0.104 µM | –
Cc1nc2ccccc2c(/C=C/c2ccc(Br)cc2)c1C(=O)/C=C/c1ccccc1 | 4.57 µM | 4.98 µM | 3.01 µM | 4.15 µM | 3.68 µM | 5.44 µM | 2.97 µM | 3.15 µM | – | 5.31 µM | 1.91 µM | 1.62 µM | – | 1.29 µM | 1.65 µM | 2.13 µM | 1.88 µM | 1.76 µM | 1.73 µM | 1.57 µM
C#CCOc1cccc(Nc2ncnc3c(NC(=O)CCl)cccc23)c1 | 49.9 µM | 37.9 µM | 3.47 µM | > 100 µM | > 100 µM | – | 38.1 µM | 37.8 µM | 77.4 µM | > 100 µM | 22.1 µM | 17.2 µM | 24.2 µM | 17 µM | 1.7 µM | 32 µM | 51.2 µM | 29.5 µM | – | 19.4 µM
Cn1c2ccccc2n2c(=O)c3c(c(C#N)c12)CCCC3 | > 100 µM | > 100 µM | > 100 µM | > 100 µM | > 100 µM | > 100 µM | > 100 µM | – | – | – | – | – | – | – | – | – | – | – | – | –
CC(C)c1c2[nH]c3ccccc3c2c(C(C)C)c2[nH]c3ccccc3c12 | > 100 µM | > 100 µM | > 100 µM | > 100 µM | > 100 µM | > 100 µM | > 100 µM | – | – | – | – | – | – | – | – | – | – | – | – | –
c1ccc2c3c([nH]c2c1)C1CCCN1CC3 (stereo not given) | – | > 10 µM | > 10 µM | > 10 µM | > 10 µM | > 10 µM | > 10 µM | > 10 µM | > 10 µM | > 10 µM | – | – | – | – | – | – | – | – | – | –
